Data taken from patent US20250026733A1, “DEUTERATED ANALOGS OF PYROLE INHIBITORS OF ERK, SYNTHESIS THEREOF AND INTERMEDIATES THERETO” (BIOMED VALLEY DISCOVERIES, INC., priority 2022, published 2025).
Like-named read-outs stand apart in the source and are kept apart here.

Assays:
CYP3A4 mRNA expression = settings: human, hepatocytes, 24 h
Description: (§3) A single preparation of characterized cryopreserved human hepatocytes isolated from non-transplantable human livers was treated in this study. Triplicate wells for each of the cultures were treated in 48-well plates with supplemented MCM (37±2° C.) containing 0.1% v/v DMSO (solvent control), one of three concentrations of each test article (1, 10 and 20 μM) or positive control CYP enzyme inducers omeprazole (50 μM), phenobarbital (1000 μM) or rifampin (20 μM). The cultures were incubated in a humidified culture chamber (37±2° C. at 95% relative humidity, 95/5% air/CO2). Approximately 24 h after treatment, hepatocytes were lysed in Buffer RLT reagent containing β-mercaptoethanol (100:1). The medium was aspirated, and Buffer RLT was added to each well. The cell lysates were prepared by repeated pipetting and shaking. Total RNA was isolated using the RNeasy Mini Kit. RNA quality and concentration were determined by measuring absorbance at 260 and 280 nm on a plate reader. Single-stranded cDNA was prepared from RNA with the RT Master Mix. The RT Master Mix comprises 10×RT buffer, 25× deoxyNTPs, 10× Random primers, RNase Inhibitor (20 U/μL), MultiScribe reverse transcriptase (50 U/μL) and RNase-free water. The RT Master Mix was added to each RNA sample to complete the components of the reaction. No template controls (NTCs) were included in the analysis. For the NTC reactions, RNase-free water was added in place of the RNA sample. The prepared cDNA samples were stored at −20±5° C. following analysis by qRT-PCR. Each PCR was performed in quadruplicate. A Primer Mix was prepared for each Gene Expression assay. A typical Primer Mix contained TaqMan Fast Advanced Master Mix (1×), Gene Expression Assay (1×, 900 nM forward and reverse primers) and RNase-free water. The Reaction Mix was prepared by adding the Primer Mix to cDNA. A percentage of samples (no less than 10%) included NAC (no amplification control) samples. […] Reactions were analyzed on a PCR sequence detection system. The relative quantity of the target cDNA compared with that of the control cDNA (GAPDH) was determined by the ΔΔCt method. Relative quantitation measures the change in mRNA expression in a test sample relative to that in a control sample (e.g., DMSO). This method assumes that the efficiency of the target amplification and the efficiency of the endogenous control amplification are approximately equal.

CYP2B6 mRNA expression = settings: human, hepatocytes, 24 h
Description: as §3

CYP1A2 mRNA expression = experiment: In-vitro CYP induction study, CYP1A2 mRNA in cultured human hepatocytes; settings: approximately 24 h
Description: as §3

CYP3A4/5 = experiment: In-vitro CYP inhibition study, CYP3A4/5; format: in vitro ADME; settings: both sexes, human, human liver microsomes, pH 7.4, probe Midazolam (3 μM), substrate Midazolam (3 μM)
Description: (§1) Incubations were conducted using a cocktail of seven prototypical CYP substrates to ascertain the potential of each test article to inhibit the metabolism of concomitantly administered drugs. A mixed-gender pool of 200 human liver microsomal samples was used for this study. Incubations were conducted at approximately 37° C. in 200 μL incubation mixtures (pH 7.4) containing water, potassium phosphate buffer (50 mM), MgCl2 (3 mM), EDTA (1 mM), an NADPH regenerating system (NADP [1 mM], glucose 6 phosphate [5 mM], glucose 6 phosphate dehydrogenase [1 Unit/mL]), and probe substrate (i.e., a seven substrate cocktail) at the final concentrations indicated in Table 9. Reactions were initiated by the addition of NADPH-regenerating system and were automatically terminated at approximately 5 minutes by the addition of internal standard mixed in stop reagent, acetonitrile. The samples were centrifuged at 920×g for 10 minutes at 10° C. The supernatant fractions were analyzed by LC-MS/MS. To examine its ability to act as a time-dependent inhibitor of CYP enzymes, each test article (at the same concentrations used to evaluate direct inhibition, (i.e. 0, 0.02, 0.06, 0.2, 0.6, 2, 6, 20 μM) was pre-incubated at 37±2° C. with NADPH-fortified human liver microsomes for approximately 30 minutes. The pre-incubations were initiated by the addition of NADPH-regenerating system. After 30 min, probe substrate incubations were initiated by the addition of probe substrate cocktail. Incubations were terminated and samples were analyzed by LC-MS/MS. When inhibition was observed, the data were processed with a LIMS for the determination of IC50 values by utilizing the Levenberg-Marquardt algorithm to perform non-linear regression fitting of the data to the following 4-parameter sigmoidal-logistic IC50 equation:
(§2) As percent of control values are utilized, the minimum value (Min) is set to zero and the maximum value (Max) is set to 100 (or other values, as appropriate). The LIMS calculates an IC50 value only when it lies within the concentration range of the inhibitor studied. Therefore, when an IC50 value falls outside the concentration range studied, the IC50 values are reported to be greater than the highest concentration of the test article evaluated.

CYP1A2 = target: T1, CYP1A2 (Homo sapiens, UniProt P05177); experiment: In-vitro CYP inhibition study, CYP1A2; format: in vitro ADME; settings: human liver microsomes, substrate Phenacetin (90 μM)
T1 construct: from tissue; host or cells: human liver microsomes, mixed-gender pool of 200
T1 sequence (P05177 1-516): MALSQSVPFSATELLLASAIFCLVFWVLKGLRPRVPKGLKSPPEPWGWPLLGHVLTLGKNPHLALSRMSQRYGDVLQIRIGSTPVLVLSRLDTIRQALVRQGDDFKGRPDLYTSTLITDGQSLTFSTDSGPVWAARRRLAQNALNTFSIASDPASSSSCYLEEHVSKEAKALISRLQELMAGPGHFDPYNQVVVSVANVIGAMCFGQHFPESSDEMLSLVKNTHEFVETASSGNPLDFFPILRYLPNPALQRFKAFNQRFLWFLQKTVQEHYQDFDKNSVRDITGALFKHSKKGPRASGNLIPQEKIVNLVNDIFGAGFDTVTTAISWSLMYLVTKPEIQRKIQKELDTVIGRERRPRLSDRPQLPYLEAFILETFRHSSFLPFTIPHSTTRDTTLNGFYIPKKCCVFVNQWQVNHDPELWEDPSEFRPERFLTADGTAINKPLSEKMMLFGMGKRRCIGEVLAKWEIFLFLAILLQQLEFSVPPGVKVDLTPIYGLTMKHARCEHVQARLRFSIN
Description: as §1, §2

CYP2B6 = target: T2, CYP2B6 (Homo sapiens, UniProt P20813); experiment: In-vitro CYP inhibition study, CYP2B6; format: in vitro ADME; settings: human liver microsomes, substrate Bupropion (90 μM)
T2 construct: from tissue; host or cells: human liver microsomes, mixed-gender pool of 200
T2 sequence (P20813 1-491): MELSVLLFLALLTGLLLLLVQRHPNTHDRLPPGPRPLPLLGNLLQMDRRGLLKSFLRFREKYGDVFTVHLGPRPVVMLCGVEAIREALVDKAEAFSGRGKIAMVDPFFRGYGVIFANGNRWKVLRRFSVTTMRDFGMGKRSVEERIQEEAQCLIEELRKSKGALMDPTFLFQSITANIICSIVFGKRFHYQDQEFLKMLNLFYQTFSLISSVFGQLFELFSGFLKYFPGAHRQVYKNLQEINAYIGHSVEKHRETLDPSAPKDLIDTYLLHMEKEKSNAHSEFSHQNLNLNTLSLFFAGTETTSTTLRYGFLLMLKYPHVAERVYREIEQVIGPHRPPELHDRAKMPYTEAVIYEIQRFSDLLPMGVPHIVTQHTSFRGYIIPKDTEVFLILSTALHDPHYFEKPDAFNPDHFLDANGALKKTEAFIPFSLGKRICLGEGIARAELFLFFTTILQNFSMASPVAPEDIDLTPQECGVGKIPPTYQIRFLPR
Description: as §1, §2

[1] = Half-life determination in human liver microsomes; format: in vitro ADME; settings: for half-life at 1 μM: human, NADPH; for Half-life, % change relative to ulixertinib: mean
Description: Human microsomes from a pool of 10 donors was obtained from a commercial source. Microsomes prepared in potassium phosphate buffer were spiked with ulixertinib, Formula 18, Formula 19, and Formula 21 individually in replicates of six at a final concentration of 1 μM. NADPH was used to initiate the experiment; a control of minus NADPH (minus cofactor) was also run in parallel to the human liver microsome stability. After spiking with test article, microsome replicates were placed in a 37° C. incubator with the following time course: 0, 5, 10, 15, 20, 30, 45 and 60 minutes. Samples were extracted with a protein precipitation quench consisting of ice cold acetonitrile containing internal standard (tolbutamide). Samples were analyzed for ulixertinib, Formula 18, Formula 19, and Formula 21. The half-lives of ulixertinib, Formula 18, Formula 19, and Formula 21 were characterized by the […] to determine the elimination rate (ke) and using the formula described below.
[formula] • ke (elimination rate): the slope of ln(percent remaining) vs time (in minutes)

[2] = Rep 1, read-out: Half-life, t½, Rep 1
[3] = Rep 2, read-out: Half-life, t½, Rep 2
[4] = Rep 3, read-out: Half-life, t½, Rep 3
[5] = Rep 4, read-out: Half-life, t½, Rep 4
[6] = Rep 5, read-out: Half-life, t½, Rep 5
[7] = Rep 6, read-out: Half-life, t½, Rep 6
[8] = six replicates, read-out: Half-life, t½, Mean ± SD

| Fold Change in mRNA Expression of CYP3A4 (CYP3A4 mRNA expression; 1 μM) | Fold Change in mRNA Expression of CYP3A4 (CYP3A4 mRNA expression; 10 μM) | Fold Change in mRNA Expression of CYP2B6 (CYP2B6 mRNA expression; 1 μM) | Fold Change in mRNA Expression of CYP2B6 (CYP2B6 mRNA expression; 10 μM) | Fold Change in mRNA Expression of CYP1A2 (CYP1A2 mRNA expression; 10 μM) | IC50 at 5 min (CYP3A4/5; preincubation 0 min) | IC50 at 5 min (CYP3A4/5; preincubation 30 min) | IC50 (CYP1A2; preincubation 0 min) | IC50 (CYP1A2; preincubation 30 min) | IC50 (CYP2B6; preincubation 0 min) | IC50 (CYP2B6; preincubation 30 min) | half-life at 1 μM [1, 2] | half-life at 1 μM [1, 3] | half-life at 1 μM [1, 4] | half-life at 1 μM [1, 5] | half-life at 1 μM [1, 6] | half-life at 1 μM [1, 7] | half-life at 1 μM [1, 8] | Half-life, % change relative to ulixertinib [1] | Structure (SMILES) | other results |
| --- | --- | --- | --- | --- | --- | --- | --- | --- | --- | --- | --- | --- | --- | --- | --- | --- | --- | --- | --- | --- |
| 1.39 fold | 5.29 fold | 1.08 fold | 2.04 fold | 8.51 fold | > 20 µM | 17 µM | > 20 µM | > 20 µM | 17 µM | 19 µM |  |  |  |  |  |  |  |  | Cl.[2H]C(C)(C)Nc1cc(-c2c[nH]c(C(=O)N[C@H](CO)c3cccc(Cl)c3)c2)c(Cl)cn1 [Formula 21A] | Fold Change in mRNA Expression of CYP1A2 (CYP1A2 mRNA expression; 1 μM): 2.22 fold |
| 1.83 fold | 5.39 fold | 1.36 fold | 1.90 fold |  | > 20 µM | 14 µM | > 20 µM | 17 µM | 12 µM | 16 µM | 59.2 min | 58.7 min | 60.6 min | 55.8 min | 57.5 min | 62 min | 59 ± 2.2 min | (+21%) | [2H]C([2H])([2H])C([2H])(Nc1cc(-c2c[nH]c(C(=O)N[C@H](CO)c3cccc(Cl)c3)c2)c(Cl)cn1)C([2H])([2H])[2H] [Formula 18, 4-(5-chloro-2-((propan-2-yl-d7)amino)pyridin-4-yl)-N-(1-(3-chlorophenyl)-2-hydroxyethyl)-1H-pyrrole-2-carboxamide] | Fold Change in mRNA Expression of CYP1A2 (CYP1A2 mRNA expression; 20 μM): 7.56 fold; longer half-life than ulixertinib ([1]; Table 5): 21% |
| 1.52 fold | 6.84 fold | 1.25 fold | 1.99 fold | 6.63 fold | > 20 µM | 14 µM | > 20 µM | 13 µM | 11 µM | 16 µM | 49.2 min | 51.2 min | 50.3 min | 46.2 min | 48.5 min | 48.1 min | 48.9 ± 1.8 min |  | CC(C)Nc1cc(-c2c[nH]c(C(=O)N[C@H](CO)c3cccc(Cl)c3)c2)c(Cl)cn1 [Ulixertinib, reference compound] |  |
| 2.06 fold | 9.42 fold | 1.47 fold | 2.10 fold | 12.1 fold | > 20 µM | 13 µM | > 20 µM | 19 µM | 14 µM | 16 µM | 43.4 min | 45.2 min | 46.1 min | 44.9 min | 47.8 min | 44.9 min | 45.4 ± 1.5 min | (−7%) | [2H]C([2H])([2H])C(Nc1cc(-c2c[nH]c(C(=O)N[C@H](CO)c3cccc(Cl)c3)c2)c(Cl)cn1)C([2H])([2H])[2H] [Formula 19, 4-(5-chloro-2-((propan-2-yl-1,1,1,3,3,3-d6)amino)pyridin-4-yl)-N-(1-(3-chiorophenyl)-2-hydroxyethyl)-1H-pyrrole-2-carboxamide] | shorter half-life compared to ulixertinib ([1]; Table 5): 7% |
